Experimental data reported in patent publication US11548875B2, “Inhibitor compounds for male contraception” (University of Washington, priority 2018, dated 2023).
Read-outs that look alike come from different tables or passages of the source.

Key:
ALDH1A1 [1] = target: T1, ALDH1A1 (Homo sapiens, UniProt P00352); test: Inhibitor screening using purified enzymes: ALDH1A1 activity, retinoic acid production by HPLC; type: biochemical; conditions: purified enzyme
T1 sequence (P00352 1-501): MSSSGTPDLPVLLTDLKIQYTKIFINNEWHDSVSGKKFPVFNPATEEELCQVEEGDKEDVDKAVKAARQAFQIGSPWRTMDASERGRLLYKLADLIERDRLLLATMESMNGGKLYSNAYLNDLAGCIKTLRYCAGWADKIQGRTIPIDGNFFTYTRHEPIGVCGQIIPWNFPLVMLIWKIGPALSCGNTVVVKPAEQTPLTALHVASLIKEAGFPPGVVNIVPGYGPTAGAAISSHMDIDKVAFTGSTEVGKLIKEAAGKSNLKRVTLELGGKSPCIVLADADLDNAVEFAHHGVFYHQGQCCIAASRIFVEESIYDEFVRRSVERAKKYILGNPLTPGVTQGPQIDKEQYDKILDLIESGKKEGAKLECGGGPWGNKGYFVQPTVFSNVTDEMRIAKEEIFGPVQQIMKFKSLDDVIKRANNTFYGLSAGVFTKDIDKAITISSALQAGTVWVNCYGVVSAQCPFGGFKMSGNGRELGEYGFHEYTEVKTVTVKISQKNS
Excerpt: (§1) ALDHs were cloned into bacterial expression vector for in vitro enzyme assays and into mammalian expression vectors for cell-based enzyme assays. Human ALDH1A1 cDNA and human ALDH2 cDNA were purchased from OriGene (SC321535) and Open Biosystems (MHS4771-99611182), respectively. and human ALDH1A2 cDNA was cloned from human testis RNA using RT-PCR (Population Division of the Department of Economic and Social Affairs of the United Nations Secretariat. World Population prospects: the 2008 revision. Available at http://www.un.org/esa/population/ (Retrieved Sep. 30, 2011)). For bacterial expression, an open reading frame of ALDH1A1 and ALDH2 were subcloned into the pETite vector (Lucigen) with a 5′ histidine-tag and that of ALDH1A2 into a pET28 vector (Novagen) with a 3′ histidine-tag. Correct frame and sequences were verified through DNA sequencing (UW DNA sequencing facility). ALDHs were induced with 1 mM IPTG and purified using His.Bind resin (Novagen, San Diego, Calif.) and stored in a buffer containing 20 mM Hepes (pH 8), 150 mM KCl and 1 mM EDTA as previously described (Fierce, Y., de Morais Vieira, M., Piantedosi, R., Wyss, A., Blaner, W. S., and Paik, J. (2008) In vitro and in vivo characterization of retinoid synthesis from beta-carotene. Archives of biochemistry and biophysics 472, 126-138).
(§2) ALDH1A1 and ALDH1A2 activity was determined as previously reported (Beedle M T, Stevison F, Zhong G, Topping T, Hogarth C, Isoherranen N, Griswold M D. Sources of All-Trans Retinal Oxidation Independent of the Aldehyde Dehydrogenase 1A Isozymes Exist in the Postnatal Testis. Biol Reprod. 2018 Sep. 21. doi: 10.1093/biolre/ioy200). Briefly, purified enzymes were incubated in a buffer containing 10 mM HEPES buffer (pH 8.0), 150 mM potassium chloride and 2 mM EDTA with 2 mM NAD. Retinoic acid production was determined using HPLC as previously reported (Amory J K, Muller C H, Shimshoni A J, Isoherranen N, Paik J, Moreb J S, Amory D W, Evanoff R, Goldstein A S, Griswold M D. Suppression of spermatogenesis by bisdichloroacetyldiamines is mediated by inhibition of testicular retinoic acid biosynthesis. Journal of Andrology 2011; 32(1):111-119). Inhibitors were diluted in DMSO and added to the reactions. […] For initial screening of inhibitors for ALDH1A2, 1 μg ALDH1A2, 5 μM all-trans-retinal and 5 μM inhibitors were incubated for 15 min at 37° C. […] For this purpose, 0.5 μg ALDH1A2 and […] were incubated for 5 minutes at 37° C. with varying concentrations of inhibitors. To determine specificity toward ALDH1A2, the IC50 for […]

ALDH1A2 [2] = target: T2, ALDH1A2 (Homo sapiens, UniProt O94788); test: Inhibitor screening using purified enzymes: ALDH1A2 activity, retinoic acid production by HPLC (5 uM initial screen, then IC50); type: biochemical; parameters: histidine-tag (C); made in house; host or cells: bacterial expression (pET28 vector, IPTG induction); conditions: purified enzyme
T2 sequence (O94788 1-518): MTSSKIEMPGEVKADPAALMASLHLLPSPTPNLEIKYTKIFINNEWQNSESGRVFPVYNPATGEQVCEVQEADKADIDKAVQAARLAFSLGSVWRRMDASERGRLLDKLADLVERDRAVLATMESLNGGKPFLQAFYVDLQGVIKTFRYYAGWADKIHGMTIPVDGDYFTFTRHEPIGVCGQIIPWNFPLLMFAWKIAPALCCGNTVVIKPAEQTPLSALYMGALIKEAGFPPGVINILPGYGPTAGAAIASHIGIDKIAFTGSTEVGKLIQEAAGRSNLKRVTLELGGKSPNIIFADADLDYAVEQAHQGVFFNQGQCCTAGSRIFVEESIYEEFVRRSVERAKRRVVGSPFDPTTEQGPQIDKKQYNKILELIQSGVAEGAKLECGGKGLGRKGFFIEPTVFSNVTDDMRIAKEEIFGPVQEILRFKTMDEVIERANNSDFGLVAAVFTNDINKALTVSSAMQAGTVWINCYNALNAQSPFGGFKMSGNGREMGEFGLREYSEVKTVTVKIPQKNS
Excerpt: as §1, §2

ALDH2 = target: T3, ALDH2 (Homo sapiens, UniProt P05091); test: Purified ALDH2 assay with propanal, NADH fluorescence; type: biochemical; conditions: purified enzyme
T3 construct: histidine-tag (N); made in house; host or cells: bacterial expression (pETite vector, IPTG induction)
T3 sequence (P05091 18-517): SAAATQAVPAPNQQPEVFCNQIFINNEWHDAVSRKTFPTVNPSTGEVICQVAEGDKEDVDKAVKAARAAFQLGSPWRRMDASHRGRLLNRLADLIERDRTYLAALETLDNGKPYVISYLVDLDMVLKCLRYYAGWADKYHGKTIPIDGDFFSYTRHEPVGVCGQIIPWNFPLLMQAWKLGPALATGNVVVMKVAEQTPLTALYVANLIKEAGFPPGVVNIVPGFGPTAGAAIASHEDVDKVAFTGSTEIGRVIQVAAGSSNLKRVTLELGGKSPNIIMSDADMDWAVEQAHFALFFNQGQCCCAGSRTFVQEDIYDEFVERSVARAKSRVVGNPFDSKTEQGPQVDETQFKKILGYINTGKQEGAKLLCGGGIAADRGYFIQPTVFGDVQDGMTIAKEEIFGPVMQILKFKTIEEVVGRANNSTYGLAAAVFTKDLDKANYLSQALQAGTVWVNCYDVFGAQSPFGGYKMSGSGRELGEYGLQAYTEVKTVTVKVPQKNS
Excerpt: as §1, with “126-138). […]” for “126-138).”
For this, 2 μg purified ALDH2, 20 μM propanal and varying concentrations of inhibitors were incubated at room temperature. Enzyme activity was determined by measuring fluorescence of NADH (Ex, 350 nm/Em, 460 nm) using a Victor3 plate reader (PerkinElmer), and initial velocity was calculated from two consecutive readings over 1 minute.

ALDH1A1 [3] = target: T1, ALDH1A1; test: Cell-based enzyme assay, retinoic acid production in ALDH1A1/H1299 cells
Experimental: (§3) ALDH1A1 cDNA clone was purchased transfection-ready, and ALDH1A2 full-length cDNA was subcloned into pcDNA3, a mammalian expression vector. ALDH1A1 and ALDH1A2 were transfected into H1299 cells (CRL5803, ATCC) using Lipofectamine 3000 (Invitrogen) following the manufacturer's instructions. Stably transfected cells were selected with G418 (1.2 mg/ml) and referred to as ALDH1A1/H1299 and ALDH1A2/H1299. For the cell-based enzyme assays,
(§4) H1299 cells were routinely grown in RPMI-1640 (ATCC) supplemented with 10% fetal bovine serum (Atlanta Biologicals) in a 37 C, 5% CO2, moisture-saturated atmosphere. H1299, ALDH1A1/H1299 and ALDH1A2/H1299 cells were seeded into 12-well plates (1×10^5 cells/well) and grown for 2 days to confluence. Confluent cells were treated for 20 hours in the above media excluding serum with 2 μM all-trans-retinal, and varying concentrations of inhibitors. Serum-free media was used for the treatment period to avoid retinoic acid in serum. Retinoic acid concentrations were determined from cells and media, and specificity of inhibitors was determined by comparing retinoic acid levels in the presence and absence of the inhibitors in ALDH1A1- vs. ALDH1A2-expressing cells.

ALDH1A2 [4] = target: T2, ALDH1A2; test: Cell-based enzyme assay, retinoic acid production in ALDH1A2/H1299 cells
Experimental: as §3, §4

IC50 (ALDH1A1 [1]) [µM]	IC50 (ALDH1A2 [2]) [µM]	IC50 (ALDH2) [µM]	EC50 (ALDH1A1 [3]; cell-based) [µM]	EC50 (ALDH1A2 [4]; cell-based) [µM]	EC50 (ALDH1A1 [3]) [µM]	EC50 (ALDH1A2 [4]) [µM]	Molecule
3.9	0.72	–	–	–	–	–	O=C(Nc1cccc(F)c1)c1cn(-c2ccccc2)nc1-c1ccc(CBr)cc1 [Compound 8-44, 3-[4-(Bromomethyl)phenyl]-N-(3-fluorophenyl)-1-phenyl-1H-pyrazole-4-carboxamide]
0.092	3.9	–	–	–	–	–	CCN(Cc1nn(-c2ccccc2)cc1C(=O)Nc1cccc(F)c1)C(=O)C(Cl)Cl [Compound 8-54, 3-{[(Dichloroacetyl)(ethyl)amino]methyl}-N-(3-fluorophenyl)-1-phenyl-1H-pyrazole-4-carboxamide]
–	–	> 5	0.723	0.317	–	–	CCOC(=O)c1cn(-c2ccccc2)nc1-c1ccc(S(C)(=O)=O)cc1 [Compound 232, Ethyl 3-[4-(methylsulfonyl)phenyl]-1-phenyl-1H-pyrazole-4-carboxylate]
–	0.112	–	46	0.011	–	–	CS(=O)(=O)c1ccc(-c2nn(-c3ccc(F)cc3)cc2C(=O)Nc2cccc(C(F)(F)F)c2)cc1 [Compound 256, N-(3-Trifluoromethylphenyl)-1-(4-fluorophenyl)-3-[4-(methylsulfonyl)phenyl]-1H-pyrazole-4-carboxamide]
–	0.179	–	5.63	0.045	–	–	COC(=O)c1ccc(-n2cc(C(=O)Nc3cccc(F)c3)c(-c3ccc(S(C)(=O)=O)cc3)n2)cc1 [Compound 273, Methyl 4-{4-[(3-fluorophenyl)carbamoyl]-3-[4-(methylsulfonyl)phenyl]-1H-pyrazol-1-yl} benzoate]
–	> 5	–	> 20	0.3	–	–	CS(=O)(=O)c1ccc(-c2nn(-c3ccc(C=O)cc3)cc2C(=O)Nc2cccc(F)c2)cc1 [Compound 280, 1-(4-Formylphenyl)-3-[4-(methylsulfonyl)phenyl]-N-(3-fluorophenyl)-1H-pyrazole-4-carboxamide]
–	–	–	> 20	0.042	–	–	CC(=O)Oc1ccccc1OC(=O)c1cn(-c2cccc(Cl)c2)nc1-c1ccc(S(C)(=O)=O)cc1 [Compound 291, 2-(Acetyloxy)phenyl 1-(3-chlorophenyl)-3-[4-(methylsulfonyl)phenyl]-1H-pyrazole-4-carboxylate]
–	–	–	9.62	0.15	–	–	O=C(O)c1ccc(-n2cc(C(=O)Nc3cccc(F)c3)c(-c3ccc(O)cc3)n2)cc1 [Compound 306, 4-{4-[(3-Fluorophenyl)carbamoyl]-3-(4-hydroxyphenyl)-1H-pyrazol-1-yl}benzoic acid]
–	–	–	> 20	0.25	–	–	O=C(O)c1ccc(-n2cc(C(=O)Nc3ccccc3O)c(-c3ccc(O)cc3)n2)cc1 [Compound 307, 4-{3-(4-Hydroxyphenyl)-4-[(2-hydroxyphenyl)carbamoyl]-1H-pyrazol-1-yl}benzoic acid]
–	18.5	–	–	–	0.059	> 5	Cn1cccc1C(=O)N1CCN(c2ccc(NC(=O)C(Cl)Cl)c(N3CCCCCC3)c2)CC1 [Compound 381, {4-[4-Dichloroacetamido-3-(azepan-1-yl)phenyl]piperazin-1-yl}(1-methyl-1H-pyrrol-2-yl)methanone]
–	0.131	–	2.23	0.008	–	–	Methyl 4-{4-[(2-hydroxyphenyl)carbamoyl]-[4-(methylsulfonyl)phenyl]-1H-pyrazol-1-yl} benzoate [Compound 274]

Molecule	IC50 (ALDH1A1 [1]) [µM]	IC50 (ALDH1A2 [2]) [µM]	IC50 (ALDH2) [µM]	EC50 (ALDH1A1 [3]; cell-based) [µM]	EC50 (ALDH1A2 [4]; cell-based) [µM]	EC50 (ALDH1A1 [3]) [µM]	EC50 (ALDH1A2 [4]) [µM]
1-[4-(4-Nitrophenyl)-3-(azocan-1-yl)]piperazin-1-yl](1-methyl-1H-pyrrol-2-yl)methanone [Compound N104]	0.141	6.5	–	–	–	–	–
